In US7981918B2, “Cyclohexylpyrazole-lactam derivatives as inhibitors of 11-beta-hydroxysteroid dehydrogenase 1” (Eli Lilly and Company, priority 2006, dated 2011):

Key:
[1] = target: recombinant human 11β-HSD type 1 enzyme (Homo sapiens, UniProt P28845); experiment: 11β-HSD Type 1 Enzyme Assay (NADPH fluorescence); format: biochemical; settings: three hour incubation at room temperature, read-out: Human 11-βHSD1 IC50
Method: 11β-HSD Type 1 Enzyme Assay
Human 11β-HSD type 1 activity is measured by assaying NADPH production by fluorescence assay. Solid compounds are dissolved in DMSO to a concentration of 10 mM. Twenty microliters of each are then transferred to a column of a 96-well polypropylene Nunc plate where they are further diluted 50-fold followed by subsequent two-fold titration, ten times across the plate with additional DMSO using a Tecan Genesis 200 automated system. Plates are then transferred to a Tecan Freedom 200 system with an attached Tecan Temo 96-well head and an Ultra 384 plate reader. Reagents are supplied in 96-well polypropylene Nunc plates and are dispensed individually into black 96-well Molecular Devices High Efficiency assay plates (40 μL/well capacity) in the following fashion: 9 μL/well of substrate (2.22 mM NADP, 55.5 μM Cortisol, 10 mM Tris, 0.25% Prionex, 0.1% Triton X100), 3 μL/well of water to compound wells or 3 μL to control and standard wells, 6 μL/well recombinant human 11β-HSD type 1 enzyme, 2 μL/well of compound dilutions. For ultimate calculation of percent inhibition, a series of wells are added that represent assay minimum and maximum: one set containing substrate with 667 μM carbenoxolone (background), and another set containing substrate and enzyme without compound (maximum signal). Final DMSO concentration is 0.5% for all compounds, controls and standards. Plates are then placed on a shaker by the robotic arm of the Tecan for 15 seconds before being covered and stacked for a three hour incubation period at room temperature. Upon completion of this incubation, the Tecan robotic arm removes each plate individually from the stacker and places them in position for addition of 5 μL/well of a 250 μM carbenoxolone solution to stop the enzymatic reaction. Plates are then shaken once more for 15 seconds then placed into an Ultra 384 microplate reader (355EX/460EM) for detection of NADPH fluorescence.

[2] = target: T1, 11β-HSD1 (Homo sapiens, UniProt P28845); experiment: Human Aortic Smooth Muscle Cell Assay (cortisone to cortisol); format: cell-based; settings: primary human aortic smooth muscle cells (AoSMC), hTNFα-induced 11β-HSD1, cortisol by immunoassay
T1 construct: containing 12 ng/mL hTNFα to induce expression of 11β-HSD1; endogenous in cells; host or cells: primary human aortic smooth muscle cells (AoSMC), induced with hTNFα
Method: Human Aortic Smooth Muscle Cell Assay
Primary human aortic smooth muscle cells (AoSMC) are cultured in 5% FBS growth medium to a passage number of 6, then pelleted by centrifugation and resuspended at a density of 9×10^4 cells/mL in 0.5% FBS assay medium containing 12 ng/mL hTNFα to induce expression of 11β-HSD1. Cells are seeded into 96-well tissue culture assay plates at 100 μL/well (9×10^3 cells/well) and incubated for 48 hours at 37° C., 5% CO2. Following induction, cells are incubated for 4 hours at 37° C., 5% CO2 in assay medium containing test compounds then treated with 10 μL/well of 10 μM cortisone solubilized in assay medium, and incubated for 16 hours at 37° C., 5% CO2. Medium from each well is transferred to a plate for subsequent analysis of cortisol using a competitive fluorescence resonance time resolved immunoassay. In solution, an allophycocyanin (APC)-cortisol conjugate and free cortisol analyte compete for binding to a mouse anti-cortisol antibody/Europium (Eu)-anti mouse IgG complex. Higher levels of free cortisol result in diminishing energy transfer from the Europium-IgG to the APC-cortisol complex resulting in less APC fluorescence. Fluorescent intensities for Europium and APC are measured using a LJL Analyst AD. Europium and APC excitation is measured using 360 nm excitation and 615 nm and 650 nm emission filters respectively. Time resolved parameters for Europuium were 1000 μs integration time with a 200 μs delay. APC parameters are set at 150 μs integration time with a 50 μs delay. Fluorescent intensities measured for APC are modified by dividing by the Eu fluorescence (APC/Eu). This ratio is then used to determine the unknown cortisol concentration by interpolation using a cortisol standard curve fitted with a 4-parameter logistic equation. These concentrations are then used to determine compound activity by plotting concentration versus % inhibition, fitting with a 4-parameter curve and reporting the IC50.

[3] = target: T2, 11-βHSD2 enzyme (Homo sapiens, UniProt P80365); experiment: Selectivity assay using the 11-βHSD2 enzyme; format: biochemical; settings: selectivity 11-βHSD1 over 11-βHSD2
T2 sequence (P80365 1-405): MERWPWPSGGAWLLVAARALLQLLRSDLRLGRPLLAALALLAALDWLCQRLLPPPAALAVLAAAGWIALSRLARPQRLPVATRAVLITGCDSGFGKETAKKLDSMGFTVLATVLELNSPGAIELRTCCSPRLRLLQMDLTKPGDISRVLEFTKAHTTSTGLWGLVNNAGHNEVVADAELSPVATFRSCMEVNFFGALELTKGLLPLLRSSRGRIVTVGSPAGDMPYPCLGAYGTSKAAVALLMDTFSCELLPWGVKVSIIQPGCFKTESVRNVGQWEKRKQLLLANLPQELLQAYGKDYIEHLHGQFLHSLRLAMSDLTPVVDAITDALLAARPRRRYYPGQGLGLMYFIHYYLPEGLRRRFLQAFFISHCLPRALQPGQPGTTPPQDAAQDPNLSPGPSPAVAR
From the text: Compounds of the invention can also tested for selectivity against 11-βHSD2 in an assay similar to that described for 11-βHSD1, but using the 11-βHSD2 enzyme. The assay using the 11-βHSD2 enzyme can be carried out by the methods described herein and supplemented by methods known in the art.

[4] = tested on: cortisone conversion; experiment: Acute In Vivo Cortisone Conversion Assay; set-up: species or system mice (male C57BL/6); settings: Mus musculus; mice, oral dose of 10 mg/kg, cortisone challenge after 16 hours, serum cortisol
Method: Acute In Vivo Cortisone Conversion Assay
In general, compounds are dosed orally into mice, the mice are challenged with a subcutaneous injection of cortisone at a set timepoint after compound injection, and the blood of each animal is collected some time later. Separated serum is then isolated and analyzed for levels of cortisone and cortisol by LC-MS/MS, followed by calculation of mean cortisol and percent inhibition of each dosing group. Specifically, male C57BL/6 mice are obtained from Harlan Sprague Dawley at average weight of 25 grams. Exact weights are taken upon arrival and the mice randomized into groups of similar weights. Compounds are prepared in 1% w-w HEC, 0.25% w-w polysorbate 80, 0.05% w-w Dow Corning antifoam #1510-US at various doses based on assumed average weight of 25 grams. Compounds are dosed orally, 200 μl per animal, followed by a subcutaneous dose, 200 μl per animal, of 30 mg/kg cortisone at 1 to 24 hours post compound dose. At 10 minutes post cortisone challenge, each animal is euthanized for 1 minute in a CO2 chamber, followed by blood collection via cardiac puncture into serum separator tubes. Once fully clotted, tubes are spun at 2500×g, 4° C. for 15 minutes, the serum transferred to wells of 96-well plates (Corning Inc, Costar #4410, cluster tubes, 1.2 ml, polypropylene), and the plates are frozen at −20° C. until analysis by LC-MS/MS. For analysis, serum samples are thawed and the proteins are precipitated by the addition of acetonitrile containing d4-cortisol internal standard. Samples are vortex mixed and centrifuged. The supernatant is removed and dried under a stream of warm nitrogen. Extracts are reconstituted in methanol/water (1:1) and injected onto the LC-MS/MS system. The levels of cortisone and cortisol are assayed by selective reaction monitoring mode following positive ACPI ionization on a triple quadrupole mass spectrophotometer.

Sequence of recombinant human 11β-HSD type 1 enzyme (P28845 whole entry): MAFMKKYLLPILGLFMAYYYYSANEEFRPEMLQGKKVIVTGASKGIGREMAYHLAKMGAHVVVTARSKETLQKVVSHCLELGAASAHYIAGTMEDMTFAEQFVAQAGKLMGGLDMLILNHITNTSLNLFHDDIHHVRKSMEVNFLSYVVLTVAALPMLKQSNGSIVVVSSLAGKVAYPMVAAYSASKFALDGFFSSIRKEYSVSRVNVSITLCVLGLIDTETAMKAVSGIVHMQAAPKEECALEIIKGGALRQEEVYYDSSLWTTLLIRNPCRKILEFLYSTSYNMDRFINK
T1 sequence (P28845 whole entry): as above

| Compound | IC50 [1] [nM] | IC50 [2] [nM] | inhibition at 10 mg/kg [4] [%] | also measured |
| --- | --- | --- | --- | --- |
| COc1cc(Cl)c(CC2CCN(C3CCc4n[nH]cc4C3)C2=O)c(Cl)c1 (racemic) [Example 1, 3-(2,6-Dichloro-4-methoxy-benzyl)-1-(4,5,6,7-tetrahydro-2H-indazol-5-yl)-pyrrolidin-2-one] | 100 | – | – | – |
| COc1cc(Cl)c(CC2CCN(C3CCc4n[nH]cc4C3)C2=O)c(Cl)c1 (single isomer, unassigned) [Example 7, 3-(2,6-Dichloro-4-methoxy-benzyl)-1-(4,5,6,7-tetrahydro-2H-indazol-5-yl)-pyrrolidin-2-one] | 37 | – | – | – |
| Cn1cc(-c2ccc(CC3CCN(C4CCc5n[nH]cc5C4)C3=O)c(Cl)c2)cn1 (centres unmarked) [Example 11, 3-[2-Chloro-4-(1-methyl-1H-pyrazol-4-yl)-benzyl]-1-(4,5,6,7-tetrahydro-2H-indazol-5-yl)-pyrrolidin-2-one] | – | 24 | – | – |
| O=C(c1ccc(-c2cc(Cl)c(C[C@@H]3CCN(C4CCc5n[nH]cc5C4)C3=O)c(Cl)c2)cc1)N1CCOCC1 (some centres unmarked) [Example 41] | – | – | 84 | – |
| O=C1[C@H](Cc2c(Cl)cc(-c3ccc(F)nc3)cc2Cl)CCN1C1CCc2n[nH]cc2C1 (some centres unmarked) [Example 44] | – | – | 92 | – |

Further lines, with some results ahead:

| IC50 [1] [nM] | IC50 [2] [nM] | Compound | inhibition at 10 mg/kg [4] [%] | also measured |
| --- | --- | --- | --- | --- |
| – | 2 | O=C1C(Cc2c(Cl)cc(-c3ccccc3)cc2Cl)CCN1C1CCc2n[nH]cc2C1 (centres unmarked) [Example 20] | – | – |
| 243 | – | O=C1[C@H](Cc2c(Cl)cc(OCc3ccccc3)cc2Cl)CCN1[C@H]1CCc2n[nH]cc2C1 [Example 35, (3R,5S)-3-(4-Benzyloxy-2,6-dichloro-benzyl)-1-(4,5,6,7-tetrahydro-2H-indazol-5-yl)-pyrrolidin-2-one] | – | – |
| 276 | 0.4 | O=C1[C@H](Cc2c(Cl)cc(-c3ccc(F)cc3)cc2Cl)CCN1[C@H]1CCc2n[nH]cc2C1 [Example 36, (3R-5S)-(−)-3-(3,5-Dichloro-4′-fluoro-biphenyl-4-ylmethyl)-1-(4,5,6,7-tetrahydro-2H-indazol-5-yl)-pyrrolidin-2-one] | 95 | fold greater inhibition of 11-βHSD1 enzyme as compared to the inhibition of 11-βHSD2 [3]: 535 fold |
